Experiment [1] concerns the target human orexin-1 receptor (hOX1R) (Homo sapiens, UniProt O43613). In words: FLIPR Ca2+ Flux Assay, hOX1R. Particulars: CHO cells expressing hOX1R; agonist 70 pM Ala-6,12 orexin-A. It is filed as cell-based. The protocol:
(§1) Chinese hamster ovary (CHO) cells expressing the human orexin-1 receptor (hOX1R) or the human orexin-2 receptor (hOX2R) were grown in Iscove's modified DMEM containing 2 mM L-glutamine, […], 1% hypoxanthine-thymidine supplement, 100 U/ml penicillin, 100 μg/ml streptomycin and 10% heat-inactivated fetal calf serum (FCS). The cells were seeded at 20,000 cells/well into Becton-Dickinson black 384-well clear bottom sterile plates coated with poly-D-lysine. All reagents were from GIBCO-Invitrogen Corp. The seeded plates were incubated overnight at 37° C. and 5% CO2. Ala-6,12 human orexin-A, used as the agonist, was prepared as a 1 mM stock solution in 1% bovine serum albumin (BSA) and diluted in assay buffer (HBSS containing 20 mM HEPES, 0.1% BSA and 2.5 mM probenecid, pH7.4) for use in the assay at a final concentration of 70 pM. Test compounds were prepared as 10 mM stock solution in DMSO, then diluted in 384-well plates, first in DMSO, then assay buffer.
On the day of the assay, cells were washed 3× with 100 μl assay buffer and then incubated for 60 minutes (37° C., 5% CO2) in 60 μl assay buffer containing 1 μM Fluo-4AM ester, 0.02% pluronic acid, and 1% BSA. The dye loading solution was then aspirated and cells were washed 3× with 100 μl assay buffer. 30 μl of that same buffer was left in each well. Within the Fluorescent Imaging Plate Reader (FLIPR, Molecular Devices), test compounds were added to the plate in a volume of 25 μl, incubated for 5 minutes, and then 25 μl of agonist was added. Fluorescence was measured for each well at 1 second intervals for 5 minutes, and the height of each fluorescence peak was compared to the height of the fluorescence peak induced by 70 pM of Ala-6,12 orexin-A with buffer in place of test compound.

Experiment [2] deals with human orexin-2 receptor (hOX2R) (Homo sapiens (Human), UniProt O43614). In words: FLIPR Ca2+ Flux Assay, hOX2R. Type of experiment: cell-based. Particulars: CHO cells expressing hOX2R; agonist 70 pM Ala-6,12 orexin-A. The protocol:
In a typical experiment the OX1 and OX2 receptor antagonistic activity of the compounds of the present invention was determined in accordance with the following experimental method. For intracellular calcium measurements, Chinese hamster ovary (CHO) cells expressing the rat orexin-1 receptor or the human orexin-2 receptor, are grown in Iscove's modified DMEM containing 2 mM L-glutamine, […], 1% hypoxanthine-thymidine supplement, 100 U/ml penicillin, 100 μg/ml streptomycin and 10% heat-inactivated fetal calf serum (FCS). The cells are seeded at 20,000 cells/well into Becton-Dickinson black 384-well clear bottom sterile plates coated with poly-D-lysine. All reagents were from GIBCO-Invitrogen Corp. The seeded plates are incubated overnight at 37° C. and 5% CO2. Ala-6,12 human orexin-A as the agonist is prepared as a 1 mM stock solution in 1% bovine serum albumin (BSA) and diluted in assay buffer (HBSS containing 20 mM HEPES, 0.1% BSA and 2.5 mM probenecid, pH7.4) for use in the assay at a final concentration of 70 pM. Test compounds are prepared as 10 mM stock solution in DMSO, then diluted in 384-well plates, first in DMSO, then assay buffer. On the day of the assay, cells are washed 3 times with 100 μl assay buffer and then incubated for 60 min (37° C., 5% CO2) in 60 μl assay buffer containing 1 μM Fluo-4AM ester, 0.02% pluronic acid, and 1% BSA. The dye loading solution is then aspirated and cells are washed 3 times with 100 μl assay buffer. 30 μl of that same buffer is left in each well. Within the Fluorescent Imaging Plate Reader (FLIPR, Molecular Devices), test compounds are added to the plate in a volume of 25 μl, incubated for 5 min and finally 25 μl of agonist is added. Fluorescence is measured for each well at 1 second intervals for 5 minutes and the height of each fluorescence peak is compared to the height of the fluorescence peak induced by 70 pM Ala-6,12 orexin-A with buffer in place of antagonist. […] Alternatively, compound potency can be assessed by a radioligand binding assay (described in Bergman et. al. Bioorg. Med. Chem. Lett. 2008, 18, 1425-1430) in which the inhibition constant (Ki) is determined in membranes prepared from CHO cells expressing either the OX1 or OX2 receptor. The intrinsic orexin receptor antagonist activity of a compound which may be used in the present invention may be determined by these assays.
as §1
On the day of the assay, cells were washed 3× with 100 μl assay buffer and then incubated for 60 minutes (37° C., 5% CO2) in 60 μl assay buffer containing 1 μM Fluo-4AM ester, 0.02% pluronic acid, and 1% BSA. The dye loading solution was then aspirated and cells were washed 3× with 100 μl assay buffer.
On the technique in general: Calcium assays in cells follow changes in intracellular calcium, usually with a dye or a luminescent sensor.

The record followed here is patent publication US9725434B2, “Hydroxy-substituted orexin receptor antagonists” (MERCK SHARP & DOHME CORP., priority 2013, dated 2017).

The IC50 is the concentration that gives 50% inhibition.

Chain of human orexin-2 receptor (hOX2R) (O43614 whole entry): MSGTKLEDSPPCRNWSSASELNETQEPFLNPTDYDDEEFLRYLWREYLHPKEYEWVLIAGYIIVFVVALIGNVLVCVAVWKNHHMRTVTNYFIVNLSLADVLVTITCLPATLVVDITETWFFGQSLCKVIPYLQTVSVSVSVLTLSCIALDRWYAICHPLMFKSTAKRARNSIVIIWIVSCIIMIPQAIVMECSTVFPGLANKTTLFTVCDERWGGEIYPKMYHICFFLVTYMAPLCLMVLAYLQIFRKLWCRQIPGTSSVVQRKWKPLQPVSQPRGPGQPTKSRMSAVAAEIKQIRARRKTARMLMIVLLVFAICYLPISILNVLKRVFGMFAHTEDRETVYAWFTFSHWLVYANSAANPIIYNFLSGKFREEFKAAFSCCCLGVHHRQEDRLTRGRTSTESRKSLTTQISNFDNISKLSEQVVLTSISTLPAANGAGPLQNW

In experiment [1], “(1S)-6-{[(3R,6R)-6-Methyl-1-{[2-(2H-1,2,3-triazol-2-yl)phenyl]carbonyl}piperidin-3-yl]oxy}-2,3-dihydro-1H-inden-1-ol [Example 28]” had a half-maximal inhibitory concentration (IC50) of 10000 nM. With `C[C@@H]1CC[C@@H](Oc2cccc3c2CCC[C@]3(C)O)CN1C(=O)c1ccccc1-n1nccn1` [Example 30, (1S)-1-methyl-5-{[(3R,6R)-6-methyl-1-{[2-(2H-1,2,3-triazol-2-yl)phenyl]carbonyl}piperidin-3-yl]oxy}-1,2,3,4-tetrahydronaphthalen-1-ol], the IC50 stood at 20 nM in experiment [2] and 289 nM in experiment [1]. Regarding `C[C@@H]1CC[C@@H](Oc2cc([C@@](C)(O)C3CC3)ccn2)CN1C(=O)c1ccccc1-n1nccn1` [Example 12, (1S)-1-cyclopropyl-1-(2-{[(3R,6R)-6-methyl-1-{[2-(2H-1,2,3-triazol-2-yl)phenyl]carbonyl}piperidin-3-yl]oxy}pyridin-4-yl)ethanol], the values for the concentration for half-maximal inhibition (IC50) in experiment [2] and in experiment [1] were 13 nM and 241 nM, respectively. With `C[C@@H]1CC[C@@H](Oc2ccc3c(c2)C(O)CC3)CN1C(=O)c1ccccc1-n1nccn1` (stereo partly drawn) [Example 24, 6-{[(3R,6R)-6-Methyl-1-{[2-(2H-1,2,3-triazol-2-yl)phenyl]carbonyl}piperidin-3-yl]oxy}-2,3-dihydro-1H-inden-1-ol], in experiment [1], the 50% inhibitory concentration (IC50) amounted to 2070 nM.

Take `C[C@@H]1CC[C@@H](Oc2cccc(C(C)(O)C3CCCC3)c2)CN1C(=O)c1ccccc1-n1nccn1` (stereo partly drawn) [Example 16, 1-Cyclopentyl-1-(3-{[(3R,6R)-6-methyl-1-{[2-(2H-1,2,3-triazol-2-yl)phenyl]carbonyl}-piperidin-3-yl]oxy}phenyl)ethanol]: the IC50 in experiment [2] amounted to 86 nM; in experiment [1], 3420 nM. The matching figures for `C[C@@H]1CC[C@@H](Oc2cccc3c2CC[C@@H]3O)CN1C(=O)c1ccccc1-n1nccn1` [Example 26, (1S)-4-{[(3R,6R)-6-Methyl-1-{[2-(2H-1,2,3-triazol-2-yl)phenyl]carbonyl}piperidin-3-yl]oxy}-2,3-dihydro-1H-inden-1-ol]: 25 nM and 1530 nM. The matching figures for `CCC(C)(O)c1cccc(O[C@@H]2CC[C@@H](C)N(C(=O)c3ccccc3-n3nccn3)C2)c1` (stereo partly drawn) [Example 18, 2-(3-{[(3R,6R)-6-Methyl-1-{[2-(2H-1,2,3-triazol-2-yl)phenyl]carbonyl}piperidin-3-yl]oxy}phenyl)butan-2-ol]: 24 nM and 827 nM. Taken in the same sequence, the figures for “(1R)-1-Methyl-6-{[(3R,6R)-6-methyl-1-{[2-(2H-1,2,3-triazol-2-yl)phenyl]carbonyl}piperidin-3-yl]oxy}-2,3-dihydro-1H-inden-1-ol [Example 34]” were 112 nM and 1170 nM. With `C[C@@H]1CC[C@@H](Oc2cccc(C(C)(O)C3CCC3)c2)CN1C(=O)c1ccccc1-n1nccn1` (stereo partly drawn) [Example 17, 1-Cyclobutyl-1-(3-{[(3R,6R)-6-methyl-1-{[2-(2H-1,2,3-triazol-2-yl)phenyl]carbonyl}piperidin-3-yl]oxy}phenyl)ethanol], the half-maximal inhibitory concentration (IC50) in experiment [2] was found to be 82 nM; in experiment [1], 8690 nM. Taken in the same sequence, the figures for `C[C@@H]1CC[C@@H](Oc2cccc3c2CCC[C@@]3(C)O)CN1C(=O)c1ccccc1-n1nccn1` [Example 29, (1R)-1-Methyl-5-{[(3R,6R)-6-methyl-1-{[2-(2H-1,2,3-triazol-2-yl)phenyl]carbonyl}piperidin-3-yl]oxy}-1,2,3,4-tetrahydronaphthalen-1-ol] were 123 nM and 10000 nM. Taken in the same sequence, the figures for `C[C@@H]1CC[C@@H](Oc2cc(C3(O)CCC3)ccn2)CN1C(=O)c1ccccc1-n1nccn1` [Example 8, 1-(2-{[(3R,6R)-6-methyl-1-{[2-(2H-1,2,3-triazol-2-yl)phenyl]carbonyl}piperidin-3-yl]oxy}pyridin-4-yl)cyclobutanol] were 41 nM and 1520 nM. Taken in the same sequence, the figures for `C[C@@H]1CC[C@@H](Oc2cccc(C(C)(O)C3CC3)c2)CN1C(=O)c1ccccc1-n1nccn1` (stereo partly drawn) [Example 15, 1-Cyclopropyl-1-(3-{[(3R,6R)-6-methyl-1-{[2-(2H-1,2,3-triazol-2-yl)phenyl]carbonyl}-piperidin-3-yl]oxy}phenyl)ethanol] were 36 nM and 2100 nM. Consider `C[C@@H]1CC[C@@H](Oc2nccc(C(C)(C)O)c2F)CN1C(=O)c1ccccc1-n1nccn1` [Example 21, 2-(3-Fluoro-2-{[(3R,6R)-6-methyl-1-{[2-(2H-1,2,3-triazol-2-yl)phenyl]carbonyl}piperidin-3-yl]oxy}pyridin-4-yl)propan-2-ol], for which the half-maximal inhibitory concentration (IC50) in experiment [2] worked out at 6 nM; in experiment [1], 259 nM. For `C[C@@H]1CC[C@@H](Oc2cccc(C(C)(O)C(F)F)c2)CN1C(=O)c1ccccc1-n1nccn1` (stereo partly drawn) [Example 36, 1,1-difluoro-2-(3-{[(3R,6R)-6-methyl-1-{[2-(2H-1,2,3-triazol-2-yl)phenyl]carbonyl}piperidin-3-yl]oxy}phenyl)propan-2-ol], the results for the half-inhibitory concentration (IC50) in experiment [2] and in experiment [1] were 18 nM and 7280 nM, respectively. As to `C[C@@H]1CC[C@@H](Oc2cccc3c2CC[C@H]3O)CN1C(=O)c1ccccc1-n1nccn1` [Example 25, (1R)-4-{[(3R,6R)-6-Methyl-1-{[2-(2H-1,2,3-triazol-2-yl)phenyl]carbonyl}piperidin-3-yl]oxy}-2,3-dihydro-1H-inden-1-ol], the half-maximal inhibitory concentration (IC50) in experiment [2] was 238 nM; in experiment [1], 7200 nM. With `C[C@@H]1CC[C@@H](Oc2cc(C(C)(C)O)ccn2)CN1C(=O)c1ccccc1-n1nccn1` [Example 4, 2-(2-{[(3R,6R)-6-Methyl-1-{[2-(2H-1,2,3-triazol-2-yl)phenyl]carbonyl}piperidin-3-yl]oxy}pyridin-4-yl)propan-2-ol], the half-maximal inhibitory concentration (IC50) in experiment [2] was determined as 20 nM; in experiment [1], 996 nM.

On to `C[C@@H]1CC[C@@H](Oc2cccc(C(C)(O)C(F)(F)F)c2)CN1C(=O)c1ccccc1-n1nccn1` (stereo partly drawn) [Example 5, 1,1,1-Trifluoro-2-(3-{[(3R,6R)-6-methyl-1-{[2-(2H-1,2,3-triazol-2-yl)phenyl]carbonyl}piperidin-3-yl]oxy}phenyl)propan-2-ol], for which the half-inhibitory concentration (IC50) in experiment [2] was determined as 89 nM; in experiment [1], 5540 nM. In the case of “(1S)-1-Methyl-6-{[(3R,6R)-6-methyl-1-{[2-(2H-1,2,3-triazol-2-yl)phenyl]carbonyl}piperidin-3-yl]oxy}-2,3-dihydro-1H-inden-1-ol [Example 35]”, the concentration for half-maximal inhibition (IC50) in experiment [2] stood at 164 nM; in experiment [1], 3350 nM. Taken in the same sequence, the figures for `CCC(C)(O)c1ccnc(O[C@@H]2CC[C@@H](C)N(C(=O)c3ccccc3-n3nccn3)C2)c1` (stereo partly drawn) [Example 9, 2-(2-{[(3R,6R)-6-Methyl-1-{[2-(2H-1,2,3-triazol-2-yl)phenyl]carbonyl}piperidin-3-yl]oxy}pyridin-4-yl)butan-2-ol] were 14 nM and 436 nM.

In experiment [1], “(1R)-6-{[(3R,6R)-6-Methyl-1-{[2-(2H-1,2,3-triazol-2-yl)phenyl]carbonyl}piperidin-3-yl]oxy}-2,3-dihydro-1H-inden-1-ol [Example 27]” showed an IC50 of 1340 nM.
